From US11104968B2, “Site-specific conjugation of linker drugs to antibodies and resulting ADCS” (Byondis B.V., priority 2014, dated 2021)
Starred links: 1 amine or outer side, 2 acyl side, 3 side chain; linkers in the order of their positions; H or OH if unused. Non-standard residues stand in square brackets, D forms with d. Residues, ends and D or L forms follow the SMILES beside them. *: point of attachment. Dolaproine = CO[C@@H]([C@@H]1CCCN1)[C@@H](C)C(=O)O; Hexanoyl(6-maleimido) = O=C1C=CC(=O)N1CCCCCC(=O)*; Dil = CC[C@H](C)[C@H](NC)[C@@H](CC(=O)O)OC; PABC = O=C(OCc1ccc(N[*:1])cc1)[*:2]; X1 = C[C@@H](N*)[C@@H](O)c1ccccc1; Cit = NC(=O)NCCC[C@H](N)C(=O)O; NMeV = CN[C@H](C(=O)O)C(C)C

Experiments:
[1] = test system: PSMA-positive cell line LNCaP-C4.2; assay: In vitro cytotoxicity, PSMA-positive cell line; format: cell-based, human; conditions: for % efficacy: at the highest concentration tested (~100 nM)
[2] = test system: 5T4-positive cell line MDA-MB-468; assay: In vitro cytotoxicity, 5T4-positive cell line; format: cell-based, human; conditions: anti-5T4-vc-seco-DUBA ADCs
Experimental: The potencies of the engineered anti-5T4 ADCs were equal to the conventionally linked ADC H8-wt on 5T4-expressing MDA-MB-468 cells (IC50 between 0.07 and 0.09 nM, Table 6).

SMILES | IC50 ([1]; anti-PSMA-vc-MMAE ADCs) [nM] | % efficacy ([1]; anti-PSMA-vc-MMAE ADCs) [%] | % efficacy ([1]; anti-PSMA-vc-seco-DUBA ADCs) [%] | IC50 ([1]; anti-PSMA-vc-seco-DUBA ADCs, based on drug equivalents) [nM] | IC50 [2] [nM] | % efficacy ([2]; at the highest concentration tested (~100 nM)) [%]
CC[C@H](C)[C@@H]([C@@H](CC(=O)N1CCC[C@H]1[C@H](OC)[C@@H](C)C(=O)N[C@H](C)[C@@H](O)c1ccccc1)OC)N(C)C(=O)[C@@H](NC(=O)[C@H](C(C)C)N(C)C(=O)OCc1ccc(NC(=O)[C@H](CCCNC(N)=O)NC(=O)[C@@H](NC(=O)CCCCCN2C(=O)C=CC2=O)C(C)C)cc1)C(C)C [Free linker drug (vc-MMAE), vc-MMAE] ({Hexanoyl(6-maleimido)}-V[Cit][PABC][NMeV]V[Dil][Dolaproine]-X1) | 0.23 | 94 | – | – | – | –
Cc1cccc2c(OC(=O)N(CCOCCO)CCN(C)C(=O)OCc3ccc(NC(=O)[C@H](CCCNC(N)=O)NC(=O)[C@@H](NC(=O)OCCOCCN4C(=O)C=CC4=O)C(C)C)cc3)cc3c(c12)[C@H](CCl)CN3C(=O)c1cn2cc(NC(=O)c3ccc(O)cc3)ccc2n1 [Free linker drug, vc-seco-DUBA] | – | – | 98 | 0.02 | 0.02 | 94
